These results are taken from publication PMC5442262, “Catechol glucosides act as donor/acceptor substrates of glucansucrase enzymes of Lactobacillus reuteri” (Applied Microbiology and Biotechnology, 2017).

Common to all, as to format: biochemical
The target in test [1] is T1, GtfML1-ΔN (Limosilactobacillus reuteri, UniProt Q5SBN0).
T1 construct: recombinant, N-terminally truncated (ΔN); also printed GtfMLI-ΔN
Description: MALDI-TOF-MS of products. The conditions noted are these: 100 mM catG1, 24 h; 25 mM sodium acetate pH 4.7, 1 mM CaCl2, 37 °C; donor and acceptor.

Test [2] addresses T2, Gtf180-ΔN (Limosilactobacillus reuteri, UniProt Q5SBN3).
T2 construct: recombinant, N-terminally truncated (ΔN)
Description: MALDI-TOF-MS of products. The following applies: 100 mM catG1, 24 h; 25 mM sodium acetate pH 4.7, 1 mM CaCl2, 37 °C; donor and acceptor.

In test [3] the target is T2, Gtf180-ΔN. Nature of the test: NP-HPLC of substrate decrease; 1H NMR of products. The following applies: 100 mM cat^6G2; 25 mM sodium acetate pH 4.7, 1 mM CaCl2, 37 °C; donor and acceptor.

T2 sequence (Q5SBN3 entry or part of it, stated change not applied): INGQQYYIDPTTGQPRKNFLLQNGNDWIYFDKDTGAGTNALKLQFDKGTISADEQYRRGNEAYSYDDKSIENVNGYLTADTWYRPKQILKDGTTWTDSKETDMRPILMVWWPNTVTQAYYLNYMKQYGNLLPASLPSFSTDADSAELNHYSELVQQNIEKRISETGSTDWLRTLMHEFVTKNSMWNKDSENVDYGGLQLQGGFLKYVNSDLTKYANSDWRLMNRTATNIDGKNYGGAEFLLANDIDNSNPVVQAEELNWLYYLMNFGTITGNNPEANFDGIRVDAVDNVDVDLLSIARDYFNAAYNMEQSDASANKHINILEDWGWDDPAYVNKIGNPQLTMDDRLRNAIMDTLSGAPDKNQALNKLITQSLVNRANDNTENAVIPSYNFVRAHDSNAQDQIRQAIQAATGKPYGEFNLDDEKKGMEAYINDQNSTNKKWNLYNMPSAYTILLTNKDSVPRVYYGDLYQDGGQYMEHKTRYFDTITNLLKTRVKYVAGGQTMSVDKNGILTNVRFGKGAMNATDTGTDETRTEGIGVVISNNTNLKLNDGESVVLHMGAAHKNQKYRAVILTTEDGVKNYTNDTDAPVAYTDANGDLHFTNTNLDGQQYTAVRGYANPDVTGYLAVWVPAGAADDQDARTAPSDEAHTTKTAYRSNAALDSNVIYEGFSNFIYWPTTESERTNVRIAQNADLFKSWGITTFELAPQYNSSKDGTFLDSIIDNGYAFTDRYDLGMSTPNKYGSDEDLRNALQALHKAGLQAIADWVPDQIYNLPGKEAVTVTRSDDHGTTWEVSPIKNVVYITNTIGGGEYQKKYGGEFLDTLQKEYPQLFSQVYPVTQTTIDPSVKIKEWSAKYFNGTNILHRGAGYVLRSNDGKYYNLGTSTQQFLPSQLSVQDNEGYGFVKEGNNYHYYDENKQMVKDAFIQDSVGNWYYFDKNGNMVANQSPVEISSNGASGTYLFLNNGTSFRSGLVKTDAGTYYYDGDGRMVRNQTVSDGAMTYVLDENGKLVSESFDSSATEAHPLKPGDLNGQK
T1 sequence (Q5SBN0 entry or part of it, stated change not applied): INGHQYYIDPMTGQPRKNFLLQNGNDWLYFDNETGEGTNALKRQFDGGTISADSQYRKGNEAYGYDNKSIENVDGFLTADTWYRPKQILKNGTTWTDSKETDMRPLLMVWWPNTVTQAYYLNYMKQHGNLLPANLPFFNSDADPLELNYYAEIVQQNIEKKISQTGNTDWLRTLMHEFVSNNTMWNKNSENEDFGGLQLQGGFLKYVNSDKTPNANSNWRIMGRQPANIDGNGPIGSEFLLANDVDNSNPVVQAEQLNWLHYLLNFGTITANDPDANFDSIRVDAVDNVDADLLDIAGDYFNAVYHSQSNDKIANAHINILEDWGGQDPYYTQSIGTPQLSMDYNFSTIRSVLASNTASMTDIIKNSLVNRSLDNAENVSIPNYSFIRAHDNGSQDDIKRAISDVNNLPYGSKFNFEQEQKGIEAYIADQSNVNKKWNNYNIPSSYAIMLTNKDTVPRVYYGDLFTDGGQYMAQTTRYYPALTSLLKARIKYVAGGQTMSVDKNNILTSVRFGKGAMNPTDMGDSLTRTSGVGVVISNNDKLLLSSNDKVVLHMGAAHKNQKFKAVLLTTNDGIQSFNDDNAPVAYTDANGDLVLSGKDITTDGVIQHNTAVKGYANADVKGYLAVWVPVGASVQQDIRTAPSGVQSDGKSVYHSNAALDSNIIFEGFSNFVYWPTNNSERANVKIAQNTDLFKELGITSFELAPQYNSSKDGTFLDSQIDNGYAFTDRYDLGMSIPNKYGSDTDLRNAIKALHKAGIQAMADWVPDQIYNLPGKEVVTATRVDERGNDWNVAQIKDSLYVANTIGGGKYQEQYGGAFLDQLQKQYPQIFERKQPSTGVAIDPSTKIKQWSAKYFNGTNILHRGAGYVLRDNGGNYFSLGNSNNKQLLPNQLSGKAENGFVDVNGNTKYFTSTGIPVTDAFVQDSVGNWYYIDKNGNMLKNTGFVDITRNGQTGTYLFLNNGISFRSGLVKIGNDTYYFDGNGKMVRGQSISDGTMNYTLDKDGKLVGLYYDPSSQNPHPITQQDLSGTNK

Consider `OC[C@H]1O[C@H](Oc2ccccc2O)[C@H](O)[C@@H](O)[C@@H]1O` [catG1], for which the MALDI-TOF-MS of products result in test [1] was “Gtf180-ΔN and GtfMLI-ΔN glucansucrase enzymes also were able to use catG1 as glucosyl donor”; in test [2] it was “Gtf180-ΔN and GtfMLI-ΔN glucansucrase enzymes also were able to use catG1 as glucosyl donor”.

As to `OC[C@H]1O[C@H](OC[C@H]2O[C@H](Oc3ccccc3O)[C@H](O)[C@@H](O)[C@@H]2O)[C@H](O)[C@@H](O)[C@@H]1O` [cat^6G2], the “NP-HPLC of substrate decrease; 1H NMR of products” value in test [3] is “Gtf180-ΔN used both cat^3G2 and cat^6G2 as donor/acceptor substrates”.
